Data set [1] concerns central nervous system. The note with it: has been reported, cited from earlier work.
Data set [2] concerns subjects with GBS. In words: Phase II double-blind, placebo controlled, crossover study; motor strength on 0-5 ordinal scale. The format is in vivo, human patients. The note with it: on average, fast release 4-AP 10 mg three times daily, oral capsule. From the text:
This is a Phase II double-blind, placebo controlled, crossover, dose-escalating study in subjects with […]. An initial trial of ten patients is randomized to one of the two treatment sequences (A or B) as shown below. The study population consists of subjects with GBS injury whose neurological status has been stable for at least eighteen months. Ten subjects are enrolled. Variables to be Collected: The measures of neurological status reported for this study are: • Motor strength was rated on the traditional 0-5 ordinal scale: • 0—absent motor strength • 1—trace motor strength • 2—can move the specified joint but only with gravity eliminated • 3—can move the joint against gravity but not against any opposing force • 4—can move the joint against opposing force but the strength is not normal for the person or symmetrical • 5—normal motor strength This scale is employed to measure the following motor strength for each of these joint motions on both the right and the left sides: hip flexion, hip adduction, hip abduction, knee flexion, knee extension, ankle dorsiflexion, ankle plantar flexion, shoulder abduction, elbow extension, elbow flexion, wrist flexion, and wrist extension. 4-AP is compounded in a #1 quick dissolution capsule containing 5 mg 4-AP and 235 mg lactose. […]

This is an account of results in patent US20110003868A1, “TREATMENT OF A NEUROPATHY WITH RAPID RELEASE AMINOPYRIDINE” (The UAB Research Foundation, priority 2003, published 2011).

Each structure is given as a SMILES string.

For the compound `Nc1ccnc(N)c1` [2,4-DAP, 2,4-diaminopyridine], the Toxicity result in data set [1] (compared with 4-AP or 2,3-DAP) is “less toxicity than either 4-AP or 2,3-DAP”. In addition, in data set [1] (compared with 4-AP), the “Central nervous system stimulation” value is “less central nervous system stimulation than 4-AP”.

As to `Nc1ccncc1` [4-AP, 4-aminopyridine], in data set [2], the “Upper extremity strength increase relative to placebo” value worked out at 15%. For the same compound, the “Lower extremity strength increase relative to placebo” value in data set [2] (hip abduction, hip adduction, hip flexion, knee flexion, ankle dorsiflexion and plantar flexion) was determined as 15%.
